Reference: patent US10919852B2, “Immunomodulator compounds” (CHEMOCENTRYX, INC., priority 2017, dated 2021)

Target: human PD-L1 / Human PD-1 (Homo sapiens (Human), UniProt Q9NZQ7)
Test: Enzyme-Linked Immunosorbent Assay (ELISA), PD-1/PD-L1 binding
Details: plate-coated human PD-L1, biotinylated human PD-1
Method: Biological Example: Enzyme-Linked Immunosorbent Assay—ELISA
96 Well plates were coated with […] of human PD-L1 (obtained from R&D) in PBS overnight at 4° C. The wells were then blocked with 2% BSA in PBS (W/V) with 0.05% TWEEN-20 for 1 hour at 37° C. The plates were washed 3 times with PBS/0.05% TWEEN-20 and the compounds were serial diluted (1:5) in dilution medium and added to the ELISA plates. Human PD-1 and biotin 0.3 μg/mL (ACRO Biosystems) were added and incubated for 1 hour at 37° C. then washed 3 times with PBS/0.05% TWEEN-20. A second block was performed with 2% BSA in PBS (W/V)/0.05% TWEEN-20 for 10 min at 37° C. and was washed 3 times with PBS/0.05% TWEEN-20. Streptavidin-HRP was added for 1 hour at 37° C. then washed 3 times with PBS/0.05% TWEEN-20. TMB substrate was added and reacted for 20 min at 37° C. A stop solution (2 N aqueous H2SO4) was added. The absorbance was read at 450 nm using a micro-plate spectrophotometer.

human PD-L1 / Human PD-1, sequence (Q9NZQ7 19-239): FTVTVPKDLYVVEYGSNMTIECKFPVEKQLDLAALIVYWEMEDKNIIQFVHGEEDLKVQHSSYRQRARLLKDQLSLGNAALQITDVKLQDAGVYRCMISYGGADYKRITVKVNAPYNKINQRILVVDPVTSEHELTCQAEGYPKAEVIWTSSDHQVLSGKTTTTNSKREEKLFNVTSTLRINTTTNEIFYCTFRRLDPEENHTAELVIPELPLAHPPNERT

| Compound | IC50 |
| --- | --- |
| CCOc1cc(O[C@H]2CCc3c(-c4cccc(OCCCN5CC(O)C5)c4Cl)cccc32)c(Cl)cc1CNCC1CCC(=O)N1 (stereo partly drawn) | 5 to 500 nM |
| N#Cc1cncc(-c2cc(O[C@H]3CCc4c(-c5cccc(OCCCN6CCC(F)CC6)c5Cl)cccc43)c(Cl)cc2CNC[C@H]2CCC(=O)N2)c1 | 500 to 20000 nM |
| Cc1c(OCCCN2CCCCC2(C)C)cccc1-c1cccc2c1CC[C@@H]2Oc1cc(OCc2cc(C#N)cc(C#N)c2)c(CN[C@H]2CCC(=O)NC2)cc1Cl | 5 to 500 nM |
| Cc1c(OCCCN2CC3(CCC3)C2)cccc1-c1cccc2c1CC[C@@H]2Oc1cc(OCc2cc(C#N)cc(C#N)c2)c(CNC[C@H]2CCC(=O)N2)cc1Cl | 5 to 500 nM |
| Cc1c(OCCCN2CCC(C)(F)C2)cccc1-c1cccc2c1CC[C@@H]2Oc1cc(OCc2cc(C#N)cc(C#N)c2)c(CN[C@H]2CCC(=O)NC2)cc1Cl (stereo partly drawn) | 5 to 500 nM |
| Cc1c(OCCCN2C(C)(C)CCCC2(C)C)cccc1-c1cccc2c1CC[C@@H]2Oc1cc(OCc2cc(C#N)cc(C#N)c2)c(CN[C@H]2CCC(=O)NC2)cc1Cl | 5 to 500 nM |
| Cc1c(OCCCN2CCC(F)CC2)cccc1-c1cccc2c1CC[C@@H]2Oc1cc(OCc2cc(C#N)cc(C#N)c2)c(CN2CCC3(C2)NC(=O)NC3=O)cc1Cl (stereo partly drawn) | 5 to 500 nM |
| Cc1c(OCCCN2CCC(C)(F)CC2)cccc1-c1cccc2c1CC[C@@H]2Oc1cc(OCc2cc(C#N)cc(C#N)c2)c(CN2CC3(C2)NC(=O)NC3=O)cc1Cl | 500 to 20000 nM |
| Cc1c(OCCCN2CCC[C@@H](F)C2)cccc1-c1cccc2c1CC[C@@H]2Oc1cc(OCc2cc(C#N)cc(C#N)c2)c(CN[C@H]2CCC(=O)NC2)cc1Cl | 5 to 500 nM |
| CCOc1cc(O[C@H]2CCc3c(-c4cccc(OCCCN5CCC5(C)C)c4C)cccc32)c(Cl)cc1CN(C)CCCC(=O)OC | 5 to 500 nM |

Next, values leading:

| IC50 | Compound |
| --- | --- |
| < 5 nM | Cc1c(OCCCN2CCC(O)(C(=O)O)CC2)cccc1-c1cccc2c1CC[C@@H]2Oc1cc(OCc2cncc(C#N)c2)c(CN[C@H](C(=O)O)[C@@H](C)O)cc1Cl |
| 5 to 500 nM | CCOc1cc(O[C@H]2CCc3c(-c4cccc(OCCCN5CCC5(C)C)c4C)cccc32)c(Cl)cc1CN(C)CCCCC(=O)OC |
| < 5 nM | Cc1c(OCCCN2CCC[C@H](O)C2)cccc1-c1cccc2c1CC[C@@H]2Oc1cc(OCc2cncc(C#N)c2)c(CN[C@H](C(=O)O)[C@@H](C)O)cc1Cl |
| < 5 nM | N#Cc1cncc(COc2cc(O[C@H]3CCc4c(-c5cccc(OCCCN6CCC(F)CC6)c5Cl)cccc43)c(Cl)cc2CN[C@@H]2CC[C@H]2O)c1 |
| < 5 nM | N#Cc1cncc(COc2cc(O[C@H]3CCc4c(-c5cccc(OCCCN6CCC(F)CC6)c5Cl)cccc43)c(Cl)cc2CNC[C@H]2CCC(=O)N2)c1 |
| < 5 nM | N#Cc1cncc(COc2cc(O[C@H]3CCc4c(-c5cccc(OCCCN6CC(O)C6)c5Cl)cccc43)c(Cl)cc2CN[C@@H]2CCCC[C@@H]2O)c1 |
| < 5 nM | CCCC(CO)(NCc1cc(Cl)c(O[C@H]2CCc3c(-c4cccc(OCCCN5CC(O)C5)c4Cl)cccc32)cc1OCc1cncc(C#N)c1)C(=O)O (stereo partly drawn) |
| < 5 nM | N#Cc1cncc(COc2cc(O[C@H]3CCc4c(-c5cccc(OCCCN6CC(O)C6)c5Cl)cccc43)c(Cl)cc2CN2CC[C@@H](O)C2)c1 |
| < 5 nM | N#Cc1cncc(COc2cc(O[C@H]3CCc4c(-c5cccc(OCCCN6CC7(CC(F)C7)C6)c5Cl)cccc43)c(Cl)cc2CNC[C@H]2CCC(=O)N2)c1 |
| < 5 nM | Cc1c(OCCCN2CCC(C)CC2)cccc1-c1cccc2c1CC[C@@H]2Oc1cc(OCc2cc(C#N)cc(C#N)c2)c(CNC[C@@H]2CCC(=O)N2)cc1Cl |
| < 5 nM | Cc1c(OCCCN2CCC(O)CC2)cccc1-c1cccc2c1CC[C@@H]2Oc1cc(OCc2cncc(C#N)c2)c(CNCC(C)(C)O)cc1Cl |
| < 5 nM | CC(CO)(NCc1cc(Cl)c(O[C@H]2CCc3c(-c4cccc(OCCCN5CC(O)C5)c4Cl)cccc32)cc1OCc1cccnc1)C(=O)O (stereo partly drawn) |
| < 5 nM | CCOc1cc(O[C@H]2CCc3c(-c4cccc(OCCCN5C(C)CC5(C)C)c4C)cccc32)c(Cl)cc1CNC[C@@H]1CCC(=O)N1 (stereo partly drawn) |
| < 5 nM | Cc1c(OCCCN2CCC(O)CC2)cccc1-c1cccc2c1CC[C@@H]2Oc1cc(OCc2cncc(C#N)c2)c(CN[C@@H](CO)C(N)=O)cc1Cl |
